Source: EPA's aquatic toxicity sets

Experiments:
[1] = tested on: Tetrahymena pyriformis; test: 48 h IGC50 (-log10 mol/L); higher = more toxic
[2] = tested on: Pimephales promelas; test: 96 h LC50 (-log10 mol/L); higher = more toxic

Compound	48 h IGC50 (-log10 mol/L) [1]	96 h LC50 (-log10 mol/L) [2]
CCC(C)(C)c1ccc(O)cc1	4.23	4.8
CCC(C)=NO	1.93	2.01
Cc1cccc(Cl)c1C#N	3.46	4
O=[N+]([O-])c1ncccc1O	3.87	2.92
C=CCN=C=S	5.06	6.06
O=Cc1ccc(O)cc1O	3.52	4.02
NC(=O)c1ccccc1O	2.76	3.13
OCCCc1cccnc1	2.16	2.96
CCCCCCCCCCC(C)=O	4.67	5.19
CC(=O)c1ccc(Cl)cc1Cl	3.62	4.21
CCc1ccccn1	2.13	2.41
CO	0.334	0.056
C#CC(C)O (stereo unspecified)	2.6	3.78
C#CCO	1.93	4.56
C=CCc1ccccc1O	3.33	3.98
C=CC(=O)OCC(C)O (stereo unspecified)	3.65	4.59
C=C(C)C(=O)OCCO	1.92	2.76
Nc1ccccc1	2.77	2.99
O=Cc1cccnc1	2.87	3.81

Compound	48 h IGC50 (-log10 mol/L) [1]	96 h LC50 (-log10 mol/L) [2]
O=Cc1cc(O)ccc1[N+](=O)[O-]	3.33	3.6
O=Cc1cc(Br)ccc1O	4.11	5.19
OCC(Br)CBr (stereo unspecified)	2.51	3.49
O=Cc1c(F)c(F)c(F)c(F)c1F	3.82	5.25
CC(=O)OC(C)(C)C	1.51	2.55
O=[N+]([O-])c1ccc(F)cc1	3.1	3.7
CC(C)COC(=O)c1ccccc1C(=O)OCC(C)C	4.44	5.49
CCC(C)=O	1.25	1.35
Nc1ccc(F)cc1C(F)(F)F	2.98	3.78
Cc1ccncc1	2.12	2.36
CC(=O)C(C)(C)C	1.56	3.06
C/C=C/C=O	4.06	4.92
CC(=O)c1ccccc1	2.54	2.87
C=CCO	1.08	5.26
NCCN1CCNCC1	2.21	1.77
C#CC(C)(C)O	1.69	1.41
N#Cc1ccccn1	2.17	2.16
N#CCCCCCCC#N	2.23	2.41
CCC#N	1.03	1.56
